Source: US10329243B2, “Biphenyl derivative and uses thereof” (XI'AN LIBANG PHARMACEUTICAL CO., LTD, priority 2015, dated 2019)
Like-named read-outs stand apart in the source and are kept apart here.

How the values were obtained:
[1] = test system: rats with permanent cerebral ischemia injury; assay type: in vivo, SD rats
Protocol: 336 healthy male SD rats weighing 250-300 g, provided by the Experimental Animal Center of the Fourth Military Medical University, were randomly divided into […]: the sham operation group, the permanent cerebral ischemia model group, and Examples 1-12 groups. The biphenyl derivatives used in each of the Examples 1-12 groups were the same as those in Example 13.
Rats were intraperitoneally injected with 10% chloral hydrate 350 mg/kg after anesthesia and opened up at the center of the neck in accordance with the Zea Longa modified method. The right common carotid artery was separated, and the right external carotid artery branches was ligated. A small opening was made at the distal end of the external carotid artery, and a previously prepared thread was inserted through the common carotid artery and the external carotid artery bifurcation into the internal carotid artery, till the anterior end of the middle cerebral artery, with an immersed depth of 18 to 19 mm. The thread was then secured, and the wound was sutured layer by layer. After the operation, the rats were placed in a clean incubator to wake up. […] The sham operation group, the permanent cerebral ischemia model group, and the Example groups were prepared strictly according to the requirements of the cerebral ischemic reperfusion model, while in the sham operation group the thread was put only into the external carotid artery. The animals were allowed to eat and drink freely after waking up. […] The sham operation group and the permanent cerebral ischemia model group were injected with the same amount of blank PEG400 aqueous solution at the same time point.
The neurological impairment was scored in each group 24 h after the embolism. The scoring was in accordance with the Longa 5-grade method: grade 0: no nerve injury symptom; grade 1: inability of stretching the contralateral forepaw; grade 2: circling to the opposite side; grade 3: tumbling to the opposite side; grade 4: no autonomous activity with loss of consciousness.

[2] = test system: Fas; test: Fas determination (immunohistochemical method), cerebral ischemic reperfusion MCAO model; assay type: in vivo, SD rats
Protocol: Rats were intraperitoneally injected with 10% chloral hydrate 350 mg/kg after anesthesia and opened up at the center of the neck in accordance with the Zea Longa modified method. The right common carotid artery was separated, and the right external carotid artery branches was ligated. A small opening was made at the distal end of the external carotid artery, and a previously prepared thread was inserted through the common carotid artery and the external carotid artery bifurcation into the internal carotid artery, till the anterior end of the middle cerebral artery, with an immersed depth of 18 to 19 mm. The thread was then secured, and the wound was sutured layer by layer. After the operation, the rats were placed in a clean incubator to wake up. […] The sham operation group, the ischemic reperfusion group, and the Example groups were prepared strictly according to the requirements of the cerebral ischemic reperfusion model, while in the sham operation group the thread was put only into the external carotid artery. The animals were allowed to eat and drink freely after waking up. After 2 h, the thread was pulled out to achieve reperfusion. The sham operation group, the ischemic reperfusion group, and the Example groups were administered intravenously the aqueous solution of the biphenyl derivatives in PEG400 at 40 mg/kg (40 mg/kg means that 40 mg of the test compound per kg of the body weight of rats) 30 min before reperfusion and 12 h after reperfusion, respectively. The sham operation group and the ischemic reperfusion group were injected with the same amount of blank PEG400 aqueous solution at the same time point.
24 hours after reperfusion, 8 rats in each group were sacrificed by decapitation, the brain was removed, rinsed with PBS (pH 7.4) at −20° i for 20 min, evenly sliced (with a thickness of 2 mm), stained in a 2% TTC solution at 37°% in the dark for 30 min, fixed in 10% formalin for 24 h, and photographs were taken to analyze the infarct volume. A mixture of femoral arterial and venous blood was drawn from another 8 rats in each group under anesthesia, placed in a low temperature centrifuge at 4° C., centrifuged at 3500 r/min for 20 min, and the supernatant was stored in a refrigerator at −20° C. ready for SOD and MDA detection. After the blood was drawn, a perfusion needle was insert through the apex to the ascending aorta, and saline at 4° C. was rapid infused until the effluent became clear, followed by 4% paraformaldehyde phosphate buffer perfusion for fixation; the brain was removed by craniotomy, and brain tissues 2 mm in front of and behind the optic chiasma were taken and fixed, dehydrated, rendered transparent, impregnated in wax, and embedded. Brain continuous coronary tissue pathological sections were consecutively cut for later use. The remaining 8 rats in each group were sacrificed, brains were removed, the ischemic brain hemispheres were immediately taken on an ice tray, and 10% brain tissue homogenate was prepared for the detection of IL-1β and TNF-α.
The immunohistochemical method was used for determination. Brain tissue paraffin sections were dewaxed into water, washed with 3% H2O2 to eliminate endogenous peroxidase activity, and rinsed with distilled water for 3 times. Sodium citrate buffer was used for antigen heat repairing, and blocking with calf serum was carried out at room temperature for 15 min; a rabbit anti-mouse Fas antibody was added dropwise, allowed to stand at 4°t overnight, biotinylated goat anti-rabbit IgG was added dropwise, and heated in a water bath at 37°a for 20 min. Washing with PBS for 5 min was continuously repeated 4 times, followed by staining with DAB and sufficient washing without counterstaining. The sections were then gradient dehydrated with alcohol, made transparent with toluene, sealed and fixed. Images were captured by a video camera under high-power optical microscope and inputted into the image analysis system for image analysis. […]

[3] = permanent cerebral ischemia model rats, 40 mg/kg intravenously 30 min before insertion of thread and 12 h after embolism, scored 24 h after the embolism, Longa grade 0-4
[4] = ischemic reperfusion MCAO rats, 40 mg/kg intravenously, brain sections 24 h after reperfusion, gray scale inversely proportional to positive expression

| Molecule | Average score of neurological impairment [1, 3] | Fas average gray scale ([2]; rat, in vivo, iv, 40 mg/kg) | Fas average gray scale ([2]; ischemic reperfusion rat model, edaravone 3 mg/kg) | Fas average gray scale [2, 4] | Average score of neurological impairment ([1]; rat, in vivo, iv, 40 mg/kg) |
| --- | --- | --- | --- | --- | --- |
| 3,3′,5,5′-tetraisopropylbiphenyl-4,4′-bis(oxymethylene phosphate) [Example 3 group] | 2.8 | 144.56 ± 6.32 | – | – | – |
| CC1=NN(c2ccccc2)C(=O)C1 [Edaravone injection, edaravone, reference compound] | – | – | 139.65 ± 2.05 | – | – |
| CC(=O)Oc1c(C(C)C)cc(-c2cc(C(C)C)c(O)c(C(C)C)c2)cc1C(C)C [Example 1 group, 4′-hydroxy-3,3′,5,5′-tetraisopropylbiphenyl-4-acetate] | 2.4 | – | – | – | – |
| CC(=O)Oc1c(C(C)C)cc(-c2cc(C(C)C)c(OC(C)=O)c(C(C)C)c2)cc1C(C)C [Example 2 group, 3,3′,5,5′-tetraisopropylbiphenyl-4′-diacetate] | 2.5 | – | – | 148.36 ± 5.33 | – |
| CC(C)c1cc(-c2cc(C(C)C)c(OC(=O)CCC(=O)O)c(C(C)C)c2)cc(C(C)C)c1O [Example 5 group, [4-(4′-hydroxy-3,3′,5,5′-tetraisopropylbiphenyl)oxy]-4-carbonyl butyric acid] | 2.4 | – | – | 148.02 ± 4.16 | – |
| CCCc1cc(-c2cc(CCC)c(O)c(C(C)C)c2)cc(C(C)C)c1O [Example 6 group, 4,4′-dihydroxy-3,3′-diisopropyl-5,5′-dipropylbiphenyl] | 2.2 | – | – | 155.33 ± 3.78 | – |
| CCCc1cc(-c2cc(CCC)c(O)c(CCC)c2)cc(CCC)c1O [Example 7 group, 4,4′-dihydroxy-3,3′,5,5′-tetrapropylbiphenyl] | 2.3 | – | – | 157.26 ± 4.05 | – |
| CC(C)c1cc(-c2cc(C(C)C)c(C(=O)O)c(C(C)C)c2)cc(C(C)C)c1O [Example 8 group, 4′-hydroxy-3,3′,5,5′-tetraisopropylbiphenyl-4-carboxylic acid] | 2.7 | – | – | 148.82 ± 7.62 | – |
| CC(C)c1cc(-c2cc(C(C)C)c(Cl)c(C(C)C)c2)cc(C(C)C)c1O [Example 9 group, 4-chloro-4′-hydroxy-3,3′,5,5′-tetraisopropylbiphenyl] | – | 147.11 ± 5.61 | – | – | 2.8 |
| CC(C)c1cc(-c2cc(C(C)C)c(OC=O)c(C(C)C)c2)cc(C(C)C)c1O [Example 10 group] | 2.4 | – | – | 145.06 ± 4.08 | – |
| CC(C)c1cc(-c2cc(C(C)C)c(OC(=O)C(N)C(C)C)c(C(C)C)c2)cc(C(C)C)c1O (stereo not shown) [Example 11 group, 4′-hydroxy-3,3′,5,5′-tetraisopropylbiphenyl-2-amino-3-methylbutyrate] | 2.3 | – | – | 152.12 ± 6.17 | – |
| CC(=O)OC(C)Oc1c(C(C)C)cc(-c2cc(C(C)C)c(O)c(C(C)C)c2)cc1C(C)C (stereo not shown) [Example 12 group, Ethyl 1-(4′-hydroxy-3,3′,5,5′-tetraisopropylbiphenyl-4-oxo)acetate] | 2.6 | – | – | 144.26 ± 3.47 | – |
